Source: patent US20260193238A1, “PHARMACEUTICAL COMPOUNDS AS PARP7 AND/OR PARP1 INHIBITORS” (Duke Street Bio Limited, priority 2022, published 2026)

target: PARP1 (Homo sapiens, UniProt P09874); test: PARP1 biochemical DELFIA assay (auto-PARylation); conditions: Table 1
Sequence (P09874 whole entry): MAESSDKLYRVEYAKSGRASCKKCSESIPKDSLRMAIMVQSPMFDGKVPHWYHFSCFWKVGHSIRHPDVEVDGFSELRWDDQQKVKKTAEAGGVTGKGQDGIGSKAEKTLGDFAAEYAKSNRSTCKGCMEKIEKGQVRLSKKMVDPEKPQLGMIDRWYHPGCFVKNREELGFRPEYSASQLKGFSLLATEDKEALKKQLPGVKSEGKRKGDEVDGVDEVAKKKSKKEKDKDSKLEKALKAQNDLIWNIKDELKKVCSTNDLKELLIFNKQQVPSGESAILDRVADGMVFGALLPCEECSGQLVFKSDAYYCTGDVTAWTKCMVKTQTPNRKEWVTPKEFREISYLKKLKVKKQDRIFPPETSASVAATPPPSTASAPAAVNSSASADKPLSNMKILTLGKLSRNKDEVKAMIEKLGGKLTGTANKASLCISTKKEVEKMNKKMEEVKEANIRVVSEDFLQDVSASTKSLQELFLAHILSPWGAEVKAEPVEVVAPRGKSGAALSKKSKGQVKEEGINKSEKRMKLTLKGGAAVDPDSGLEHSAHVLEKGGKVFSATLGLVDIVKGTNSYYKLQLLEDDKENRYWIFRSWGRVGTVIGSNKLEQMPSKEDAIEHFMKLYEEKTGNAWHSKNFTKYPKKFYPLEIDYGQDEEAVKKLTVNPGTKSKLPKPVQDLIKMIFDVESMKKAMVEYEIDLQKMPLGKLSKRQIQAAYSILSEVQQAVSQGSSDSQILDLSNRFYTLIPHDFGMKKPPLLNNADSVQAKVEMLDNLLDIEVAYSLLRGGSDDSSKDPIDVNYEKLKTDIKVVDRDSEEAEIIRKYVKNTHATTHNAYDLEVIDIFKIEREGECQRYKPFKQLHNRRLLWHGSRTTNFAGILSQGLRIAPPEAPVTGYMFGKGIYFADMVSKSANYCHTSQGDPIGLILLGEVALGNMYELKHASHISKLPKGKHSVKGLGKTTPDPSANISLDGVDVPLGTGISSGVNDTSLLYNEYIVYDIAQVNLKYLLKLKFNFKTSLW

| IC50 | SMILES |
| --- | --- |
| 10 to 100 nM | O=C(CCN1CCCC(c2c[nH]c(=O)c(C(F)(F)F)c2)C1)N1CCN(c2ncc(C(F)(F)F)cn2)CC1 (single isomer, unassigned) [Compound 25a] |
| 10 to 100 nM | O=C(CCN1CCCC(c2cc(C(F)(F)F)c(=O)[nH]n2)C1)N1CCN(c2ncc(C(F)(F)F)cn2)CC1 (single isomer, unassigned) [Compound 1b, 6-(1-(3-oxo-3-(4-(5-(trifluoromethyl)pyrimidin-2-yl)piperazin-1-yl)propyl)piperidin-3-yl)-4-(trifluoromethyl)pyridazin-3(2H)-one] |
| 10 to 100 nM | O=C(CCN1CCCCC1c1cc(C(F)(F)F)c(=O)[nH]n1)N1CCN(c2ncc(C(F)(F)F)cn2)CC1 (racemic) [Compound 21rac] |
| 10 to 100 nM | O=C(CCN1CCCC1c1cc(C(F)(F)F)c(=O)[nH]n1)N1CCN(c2ncc(C(F)(F)F)cn2)CC1 (single isomer, unassigned) [Compound 18a, 6-(1-(3-oxo-3-(4-(5-(trifluoromethyl)pyrimidin-2-yl)piperazin-1-yl)propyl)pyrrolidin-2-yl)-4-(trifluoromethyl)pyridazin-3(2H)-one] |
| 100 to 1000 nM | O=C(CCN1CCCC(c2cc(C(F)(F)F)c(=O)[nH]n2)C1)N1CCN(c2ccc(F)cn2)CC1 (single isomer, unassigned) [Compound 8b] |
| 100 to 1000 nM | O=C(CCN1CCC(c2cc(C(F)(F)F)c(=O)[nH]n2)C1)N1CCN(c2ncc(C(F)(F)F)cn2)CC1 (single isomer, unassigned) [Compound 7a] |
| 100 to 1000 nM | O=C(CCN1CCCCC(c2cc(C(F)(F)F)c(=O)[nH]n2)C1)N1CCN(c2ncc(C(F)(F)F)cn2)CC1 (racemic) [Compound 12rac] |
| 10 to 100 nM | O=C(CCN1CCCC1c1cc(C(F)(F)F)c(=O)[nH]n1)N1CCN(c2ncc(C(F)(F)F)cn2)CC1 (single isomer, unassigned) [Compound 18b, 6-(1-(3-oxo-3-(4-(5-(trifluoromethyl)pyrimidin-2-yl)piperazin-1-yl)propyl)pyrrolidin-2-yl)-4-(trifluoromethyl)pyridazin-3(2H)-one] |
| 100 to 1000 nM | O=C(CCN1CCCC(c2cc(C(F)(F)F)c(=O)[nH]n2)C1)N1CCN(c2ccc(F)cn2)CC1 (single isomer, unassigned) [Compound 8a] |

same assay, conditions: Table 1A

| SMILES | IC50 |
| --- | --- |
| CNC(=O)c1ccc(N2CCN(C(=O)CCN3CCC(c4cc(C(F)(F)F)c(=O)[nH]n4)CC3)CC2)cn1 [Compound 59] | 10 to 100 nM |
| O=C(CN1CCCCC1c1cc(C(F)(F)F)c(=O)[nH]n1)N1CCN(c2ncc(C(F)(F)F)cn2)CC1 (single isomer, unassigned) [Compound 66b] | > 10000 nM |
| CNC(=O)c1ccc(N2CCN(C(=O)CN3CCCC3c3cc(C(F)(F)F)c(=O)[nH]n3)CC2)nc1 (single isomer, unassigned) [Compound 55b] | 100 to 1000 nM |
| O=C(CN1CCCC1c1cc(C(F)(F)F)c(=O)[nH]n1)N1CCN(c2cnc(C(F)(F)F)cn2)CC1 (single isomer, unassigned) [Compound 45a] | 10 to 100 nM |
| CNC(=O)c1ccc(N2CCN(C(=O)CN3CCCC3c3cc(C(F)(F)F)c(=O)[nH]n3)CC2)cn1 (single isomer, unassigned) [Compound 37b] | 1000 to 10000 nM |
| N#Cc1cnc(N2CCN(C(=O)CN3CCCC3c3cc(C(F)(F)F)c(=O)[nH]n3)CC2)nc1 (single isomer, unassigned) [Compound 36a] | 10 to 100 nM |
| O=C(CN1CCCC1c1cc(C(F)(F)F)c(=O)[nH]n1)N1CCN(c2ncc(C3CC3)cn2)CC1 (single isomer, unassigned) [Compound 69b] | 1000 to 10000 nM |
| O=C(CN1CCCC1c1cc(C(F)(F)F)c(=O)[nH]n1)N1CCN(c2ncc(C3CC3)cn2)CC1 (single isomer, unassigned) [Compound 69a] | 10 to 100 nM |
| O=C(CN1CCCC1c1cc(C(F)(F)F)c(=O)[nH]n1)N1CCN(c2ncc(Cl)cn2)CC1 (single isomer, unassigned) [Compound 35a] | 10 to 100 nM |
| CCc1cc(C2CCCN2CC(=O)N2CCN(c3ncc(C(F)(F)F)cn3)CC2)n[nH]c1=O (single isomer, unassigned) [Compound 40a] | 10 to 100 nM |
| O=C(CCN1CCC(c2n[nH]c(=O)c3ccccc23)CC1)N1CCN(c2ncc(C(F)(F)F)cn2)CC1 [Compound 49] | 10 to 100 nM |
| O=C(CN1CCCC1c1c[nH]c(=O)c(C(F)(F)F)c1)N1CCN(c2ncc(C(F)(F)F)cn2)CC1 (single isomer, unassigned) [Compound 60a, 5-(1-(2-oxo-2-(4-(5-(trifluoromethyl)pyrimidin-2-yl)piperazin-1-yl)ethyl)pyrrolidin-2-yl)-3-(trifluoromethyl)pyridin-2(1H)-one] | 10 to 100 nM |
| O=C(CN1CCCC1c1cc(C(F)(F)F)c(=O)[nH]n1)N1CCN(c2ccc(C(F)(F)F)cn2)CC1 (single isomer, unassigned) [Compound 42b] | 10 to 100 nM |

Other lines, results leading:

| IC50 | SMILES |
| --- | --- |
| ≤ 10 nM | O=C(CN1CCCC1c1cc(C(F)(F)F)c(=O)[nH]n1)N1CCN(c2ncc(OC(F)(F)F)cn2)CC1 (single isomer, unassigned) [Compound 72b] |
| 100 to 1000 nM | O=C(CN1CCCC1c1cc(C(F)(F)F)c(=O)[nH]n1)N1CCN(c2ncc(F)cc2F)CC1 (single isomer, unassigned) [Compound 83a] |
| 1000 to 10000 nM | N#Cc1cnc(N2CCN(C(=O)CN3CCCC3c3c[nH]c(=O)c(C(F)(F)F)c3)CC2)nc1 (single isomer, unassigned) [Compound 76a] |
| 1000 to 10000 nM | O=C(CN1CCCC1c1cc(C(F)(F)F)c(=O)[nH]n1)N1CCN(c2nc3ccc(F)cc3o2)CC1 (single isomer, unassigned) [Compound 95b] |
| > 10000 nM | O=C(CN1CCCC1c1c[nH]c(=O)c(Cl)c1)N1CCN(c2ncc(C(F)(F)F)cn2)CC1 (single isomer, unassigned) [Compound 78b, 3-chloro-5-(1-(2-oxo-2-(4-(5-(trifluoromethyl)pyrimidin-2-yl)piperazin-1-yl)ethyl)pyrrolidin-2-yl)pyridin-2(1H)-one] |
| 1000 to 10000 nM | O=C(CN1CCCC1c1cc(C(F)(F)F)c(=O)[nH]n1)N1CC2(CCN(c3ncc(C(F)(F)F)cn3)CC2)C1 (single isomer, unassigned) [Compound 110b] |
| 1000 to 10000 nM | O=C(CN1CCCC1c1cc(C(F)(F)F)c(=O)[nH]n1)N1CCN(c2nc3cc(F)ccc3o2)CC1 (single isomer, unassigned) [Compound 93b] |
| 100 to 1000 nM | O=C(CN1CC(F)(F)C[C@@H]1c1cc(C(F)(F)F)c(=O)[nH]n1)N1CCN(c2ncc(C(F)(F)F)cn2)CC1 [Compound 91a, (R)-6-(4,4-difluoro-1-(2-oxo-2-(4-(5-(trifluoromethyl)pyrimidin-2-yl)piperazin-1-yl)ethyl)pyrrolidin-2-yl)-4-(trifluoromethyl)pyridazin-3(2H)-one] |
| 1000 to 10000 nM | O=C(CN1CCCC1c1c[nH]c(=O)c(C(F)(F)F)n1)N1CCN(c2ncc(C(F)(F)F)cn2)CC1 (single isomer, unassigned) [Compound 84a, 5-(1-(2-oxo-2-(4-(5-(trifluoromethyl)pyrimidin-2-yl)piperazin-1-yl)ethyl)pyrrolidin-2-yl)-3-(trifluoromethyl)pyrazin-2(1H)-one] |
| 1000 to 10000 nM | O=C(CN1CCCC1c1cc(C(F)(F)F)c(=O)[nH]n1)N1CCC(c2ncc(C(F)(F)F)cn2)CC1 (single isomer, unassigned) [Compound 70a] |
| 1000 to 10000 nM | O=C(CN1CCCC1c1c[nH]c(=O)c(C(F)(F)F)c1)N1CCN(c2ncc(Cl)cn2)CC1 (single isomer, unassigned) [Compound 74b] |
| 1000 to 10000 nM | O=C(CN1CC(F)(F)C[C@H]1c1cc(C(F)(F)F)c(=O)[nH]n1)N1CCN(c2ncc(C(F)(F)F)cn2)CC1 [Compound 91b, (S)-6-(4,4-difluoro-1-(2-oxo-2-(4-(5-(trifluoromethyl)pyrimidin-2-yl)piperazin-1-yl)ethyl)pyrrolidin-2-yl)-4-(trifluoromethyl)pyridazin-3(2H)-one] |
| 10 to 100 nM | COC1CC(c2cc(C(F)(F)F)c(=O)[nH]n2)N(CC(=O)N2CCN(c3ncc(C(F)(F)F)cn3)CC2)C1 (single isomer, unassigned) [Compound 138cis1, 6-(4-methoxy-1-(2-oxo-2-(4-(5-(trifluoromethyl)pyrimidin-2-yl)piperazin-1-yl)ethyl)pyrrolidin-2-yl)-4-(trifluoromethyl)pyridazin-3(2H)-one] |
| 100 to 1000 nM | N#Cc1cc(C2CCCN2CC(=O)N2CCN(c3nc4cc(Cl)ccc4o3)CC2)n[nH]c1=O (single isomer, unassigned) [Compound 121a] |
| 1000 to 10000 nM | CC1(C)CC(c2cc(C(F)(F)F)c(=O)[nH]n2)N(CC(=O)N2CCN(c3ncc(C(F)(F)F)cn3)CC2)C1 (single isomer, unassigned) [Compound 94b] |
| 1000 to 10000 nM | CC(C)(C)c1cnc(N2CCN(C(=O)CN3CCCC3c3cc(C(F)(F)F)c(=O)[nH]n3)CC2)nc1 (single isomer, unassigned) [Compound 82b] |
| > 10000 nM | Cn1c(N2CCN(C(=O)CN3CCCC3c3cc(C(F)(F)F)c(=O)[nH]n3)CC2)nc2ccc(F)cc21 (single isomer, unassigned) [Compound 119b] |
| 1000 to 10000 nM | O=C(CN1CCCC1c1cc(C(F)(F)F)c(=O)[nH]n1)N1CC2(C1)CN(c1ncc(C(F)(F)F)cn1)C2 (single isomer, unassigned) [Compound 106b] |
| 100 to 1000 nM | N#Cc1ccc(N2CCN(C(=O)CN3CCCC3c3c[nH]c(=O)c(C(F)(F)F)c3)CC2)nc1 (single isomer, unassigned) [Compound 77b] |
| 100 to 1000 nM | N#Cc1ccc2oc(N3CCN(C(=O)CN4CCCC4c4cc(C(F)(F)F)c(=O)[nH]n4)CC3)nc2c1 (single isomer, unassigned) [Compound 100b] |
| 1000 to 10000 nM | CCc1[nH]c(=O)c(C(F)(F)F)cc1C1CCCN1CC(=O)N1CCN(c2ncc(C(F)(F)F)cn2)CC1 (single isomer, unassigned) [Compound 105b] |
| ≤ 10 nM | O=C(CN1CCCC1c1cc(C(F)(F)F)c(=O)[nH]n1)N1CCN(c2ncc(OC(F)F)cn2)CC1 (single isomer, unassigned) [Compound 118a] |
| 10 to 100 nM | O=C(CN1CCCC1c1cc(C(F)(F)F)c(=O)[nH]n1)C1CCN(c2ncc(C(F)(F)F)cn2)CC1 (single isomer, unassigned) [Compound 75a] |
| 10 to 100 nM | N#Cc1ccc(N2CCN(C(=O)CN3CCCC3c3cc(C(F)(F)F)c(=O)[nH]n3)CC2)cc1 (single isomer, unassigned) [Compound 71b] |
